Results on 80 compounds are retold here after paper PMC12040169 (PLOS Biology, 2025).

The first data set is described as follows: in vitro. The settings on record: human, hela cells, % viability.
A word on the viability: it is a read-out of living cells in per cent, often relative to untreated cells. Consider `CC1(C)C2CCC1(CS(=O)(=O)N1CCC(C(N)=O)CC1)C(=O)C2` (centres unmarked) [CBK269499], for which the viability at 28.5 h, 10 µM was 102%.

Regarding `CCN(CC(=O)NCc1cccnc1)S(=O)(=O)c1ccc(F)cc1` [CBK269503], the viability at 28.5 h, 10 µM amounted to 85.3%.

For the compound `CN1CCN(C(=O)C2CCN(S(=O)(=O)c3ccc4ccccc4c3)CC2)CC1` [CBK269504], the viability at 28.5 h, 10 µM was found to be 88.1%.

On to `COC(=O)c1c(NC(=O)C(=O)NCc2ccccn2)sc2c1CCCC2` [CBK269505], for which the viability at 28.5 h, 10 µM was 95.2%.

On to `CC(=O)Cn1c(CN2CCOCC2)nc2c1c(=O)n(C)c(=O)n2C` [CBK269508], for which the viability at 28.5 h, 10 µM is 97.5%.

As for `COc1ccc(S(=O)(=O)N2CCN(C)CC2)cn1` [CBK269511], the viability at 28.5 h, 10 µM was 85.9%.

`O=C(O)c1cc(-n2c(S)nnc2-c2ccc3ccccc3n2)ccc1Cl` [CBK269512]: the viability at 28.5 h, 10 µM came to 86.1%.

Consider `O=C(O)c1ccc(CSc2nc(-c3ccccc3)cc(C(F)(F)F)n2)o1` [CBK269514], for which the viability at 28.5 h, 10 µM is 105%.

Consider `O=C(CCCc1nc(-c2ccccc2Cl)no1)NCc1cccnc1` [CBK269516], for which the viability at 28.5 h, 10 µM amounted to 77.8%.

For the compound `CS(=O)(=O)N(Cc1cc2ccccc2nc1O)CC1CCCO1` (centres unmarked) [CBK269517], the viability at 28.5 h, 10 µM stood at 86.1%.

As to `COc1ccc2ncc(C(=O)O)c(Nc3ccccc3C)c2c1` [CBK269522C], the viability at 28.5 h, 10 µM turned out to be 104%.

Consider `Cn1c(=O)c2c(nc(CN3CCN(Cc4ccccc4)CC3)n2CCc2ccccc2)n(C)c1=O` [CBK269523], for which the viability at 28.5 h, 10 µM was 90.9%.

With `Cc1ccc(S(=O)(=O)NC(=O)N(Cc2ccccc2)Cc2ccco2)cc1` [CBK269524], the viability at 28.5 h, 10 µM is 93%.

On to `CCOc1ccc(S(=O)(=O)NCc2ccncc2)cc1NC(C)=O` [CBK269527], for which the viability at 28.5 h, 10 µM was determined as 88%.

Turning to `CC1Cc2ccccc2N1C(=O)CSc1nnc(N)s1` (centres unmarked) [CBK269530], the viability at 28.5 h, 10 µM came out at 94.3%.

As for `CCn1c(SCC(=O)Nc2cc(C)ccc2F)nnc1-c1ccccc1O` [CBK269532], the viability at 28.5 h, 10 µM was determined as 91.4%.

Regarding `CCc1nnc2sc(-c3ccccc3Br)nn12` [CBK269533], the viability at 28.5 h, 10 µM worked out at 67.4%.

With `CC(=O)Nc1cccc(NC(=O)c2ccc(CN3CCc4ccccc4C3)cc2)c1` [CBK269534], the viability at 28.5 h, 10 µM turned out to be 92.2%.

Regarding `Cc1cccc(OCCn2c(CCNC=O)nc3ccccc32)c1C` [CBK269539], the viability at 28.5 h, 10 µM turned out to be 104%.

As to `COC(=O)c1ccc(OCc2nnn[nH]2)cc1` [CBK269544], the viability at 28.5 h, 10 µM stood at 88.7%.

`O=C(CCSc1ccccc1)Nc1ccccc1C(=O)N1CCCCC1` [CBK269545]: the viability at 28.5 h, 10 µM amounted to 87.3%.

On to `CCN1CCN(Cc2nc3c(c(=O)n(C)c(=O)n3C)n2CCc2ccccc2)CC1` [CBK269547], for which the viability at 28.5 h, 10 µM was determined as 110%.

On to `CCC(=O)Nc1ccc(C(=O)Nc2ccc(S(=O)(=O)N3CCCCC3)cc2)cc1` [CBK269549], for which the viability at 28.5 h, 10 µM turned out to be 84%.

For `Cn1c(=O)[nH]c(=O)c2c1nc(N1CCCCC1)n2CCCSc1nc2ccccc2s1` [CBK269550], the viability at 28.5 h, 10 µM was found to be 103%.

As for `Cc1nnc2sc(-c3ccncc3)nn12` [CBK269553], the viability at 28.5 h, 10 µM is 84.6%.

`COc1ccc(S(=O)(=O)NCc2ccccn2)cc1NC(C)=O` [CBK269554]: the viability at 28.5 h, 10 µM was determined as 103%.

With `Cc1cc(C(F)(F)F)nc(NCc2ccco2)n1` [CBK269555], the viability at 28.5 h, 10 µM amounted to 105%.

`CN(Cc1ccccc1)c1nc2c(c(=O)n(C)c(=O)n2C)n1CCSc1ncccn1` [CBK269564]: the viability at 28.5 h, 10 µM was 97.7%.

For the compound `COc1ccc(NS(=O)(=O)c2ccc(OCC(=O)N3CCN(C)CC3)cc2)cc1Cl` [CBK269565], the viability at 28.5 h, 10 µM was determined as 85.8%.

In the case of `Cc1ccc2nsnc2c1NC(=O)CN1CCC(C)CC1` [CBK269568], the viability at 28.5 h, 10 µM came to 86.2%.

Turning to `O=S(=O)(NCc1ccccc1)N1CCCCCC1` [CBK269569], the viability at 28.5 h, 10 µM was found to be 101%.

Turning to `O=C(O)C(Nc1nc(C(F)(F)F)nc2ccccc12)c1ccccc1` (centres unmarked) [CBK269570], the viability at 28.5 h, 10 µM came out at 106%.

As for `Cc1cccc(C(=O)NCCCNC(=O)c2ccncc2)c1` [CBK269572], the viability at 28.5 h, 10 µM came to 92.8%.

Turning to `C=CCn1c(SCCC(=O)O)nc2c1c(=O)n(C)c(=O)n2C` [CBK269573], the viability at 28.5 h, 10 µM was 79.3%.

Take `c1ccc(-c2nc3ccccc3nc2N2CCNCC2)cc1` [CBK269574C]: the viability at 28.5 h, 10 µM worked out at 85%.

Regarding `Cc1ccc(-c2cc3ccccn3c2C(=O)CSc2nncn2C)cc1` [CBK269580], the viability at 28.5 h, 10 µM stood at 83.5%.

Regarding `NC(=O)COc1ccc(CNc2ccc(Oc3ccccc3)cc2)cc1Cl` [CBK269584], the viability at 28.5 h, 10 µM is 89.4%.

Regarding `CCOc1ccc(Oc2nc(N(C)C)nc(N3CCOCC3)n2)nn1` [CBK269585], the viability at 28.5 h, 10 µM is 104%.

In the case of `O=C(CN1CCN(S(=O)(=O)N2CCCCCC2)CC1)Nc1cc(Cl)ccc1Cl` [CBK269587], the viability at 28.5 h, 10 µM came out at 90.1%.

Turning to `Cc1ccc(S(=O)(=O)Cc2ccc(C(=O)N3CCN(Cc4ccccc4)CC3)cc2)cc1` [CBK269588], the viability at 28.5 h, 10 µM came out at 86.1%.

With `CCOc1ccc(CNCc2ccc(C(=O)O)cc2)cc1OC` [CBK269590C], the viability at 28.5 h, 10 µM worked out at 87.3%.

Regarding `O=C(CNC(=O)c1ccc(Br)cc1)NC1CCCC1` [CBK269591], the viability at 28.5 h, 10 µM was 90.3%.

In the case of `Cn1c(=O)[nH]c(=O)c2[nH]c(CN3CCN(Cc4ccccc4)CC3)nc21` [CBK269592], the viability at 28.5 h, 10 µM amounted to 98.5%.

With `COc1ccc(C(=O)N(Cc2ccco2)Cc2cc3ccccc3nc2O)cc1` [CBK269594], the viability at 28.5 h, 10 µM is 95.9%.

In the case of `CCOC(=O)CC(=O)COc1noc2nc(C)cc(C)c12` [CBK269595], the viability at 28.5 h, 10 µM stood at 98.2%.

`Cc1ccc(S(=O)(=O)Cc2cccc(C(=O)N3CCN(Cc4ccccc4)CC3)c2)cc1` [CBK269596]: the viability at 28.5 h, 10 µM was 93%.

In the case of `O=C(CSc1nnc(-c2ccncc2)s1)NNC(=O)c1cccs1` [CBK269600], the viability at 28.5 h, 10 µM is 82.3%.

For the compound `COc1ccc(CCNC(=O)C2CCCN(S(=O)(=O)c3ccc4ccccc4c3)C2)cc1` (centres unmarked) [CBK269601], the viability at 28.5 h, 10 µM is 101%.

In the case of `O=C(c1cccs1)N(Cc1ccco1)Cc1cc2ccccc2[nH]c1=O` [CBK269602], the viability at 28.5 h, 10 µM was 104%.

As to `COc1ccc(Cl)cc1S(=O)(=O)N1CCC(C(=O)O)CC1` [CBK269607], the viability at 28.5 h, 10 µM was found to be 79.1%.

As to `Cc1cccc(OC(C)C(=O)Nc2ccc(S(=O)(=O)N3CCOCC3)cc2)c1` (centres unmarked) [CBK269609], the viability at 28.5 h, 10 µM is 106%.

Consider `CC(=O)NCCc1nc2ccccc2n1CCOc1ccc(Cl)cc1` [CBK269610], for which the viability at 28.5 h, 10 µM stood at 107%.

In the case of `c1ccc(Cn2c(CN3CCCC3)nc3ccccc32)cc1` [CBK269612], the viability at 28.5 h, 10 µM is 87.7%.

For the compound `O=C(NCCNC(=O)c1ccccn1)c1cccc(F)c1` [CBK269613], the viability at 28.5 h, 10 µM worked out at 78.3%.

With `O=C(CSc1nnc(COc2cccc3cccnc23)n1-c1ccccc1)N1CCCC1` [CBK269614], the viability at 28.5 h, 10 µM came to 79.1%.

As for `O=C(CSCCO)Nc1ccc(N2CCOCC2)cc1` [CBK269616], the viability at 28.5 h, 10 µM came out at 89.7%.

On to `O=S(=O)(NC1CCCCC1)c1ccc(S(=O)(=O)N2CCOCC2)cc1` [CBK269618], for which the viability at 28.5 h, 10 µM came out at 102%.

`C=CCn1c(SCC(=O)Nc2cccc(F)c2)nnc1-c1ccccc1O` [CBK269620]: the viability at 28.5 h, 10 µM came out at 83%.

With `O=C(O)c1ccc(CNCc2ccc(-c3ccc(F)cc3)o2)cc1` [CBK269622C], the viability at 28.5 h, 10 µM came to 90.9%.

For `Cc1onc(-c2ccccc2Cl)c1C(=O)Nc1ccc(CC(=O)O)cc1` [CBK269623], the viability at 28.5 h, 10 µM was 89.2%.

Turning to `CC(=O)c1ccccc1OCCOCCN1CCCC(C)C1` (centres unmarked) [CBK269625C], the viability at 28.5 h, 10 µM stood at 106%.

Take `COc1cccc(NC(=O)CSc2nnc(CC(C)C)n2C)c1` [CBK269626]: the viability at 28.5 h, 10 µM worked out at 103%.

As to `Cn1c(CN2CCOCC2)nnc1SCC(=O)Nc1cccc(F)c1` [CBK269629], the viability at 28.5 h, 10 µM worked out at 80.2%.

Consider `O=C(CC1(O)C(=O)N(Cc2ccc3c(c2)OCO3)c2ccccc21)c1cccnc1` (centres unmarked) [CBK269633], for which the viability at 28.5 h, 10 µM stood at 103%.

As for `O=C(Nc1ccc(Cc2ccncc2)cc1)c1sc2c([N+](=O)[O-])cccc2c1Cl` [CBK269635], the viability at 28.5 h, 10 µM came to 97.1%.

Consider `Cc1cc(OC(C)C(=O)Nc2ncccc2C)ccc1Cl` (centres unmarked) [CBK269637], for which the viability at 28.5 h, 10 µM is 78.4%.

On to `COc1ccc(CSc2nnc(-c3ccncc3)n2C)cc1[N+](=O)[O-]` [CBK269638], for which the viability at 28.5 h, 10 µM was determined as 87.7%.

In the case of `O=C(CC1(O)C(=O)N(CN2CCOCC2)c2ccccc21)c1ccc2c(c1)OCO2` (centres unmarked) [CBK269639], the viability at 28.5 h, 10 µM amounted to 99.3%.

Regarding `O=C(CCc1c[nH]c2ccccc12)OCc1nnc(-c2ccccc2)o1` [CBK269642], the viability at 28.5 h, 10 µM stood at 101%.

For the compound `O=C(NCCNc1ccc(Cl)cc1[N+](=O)[O-])c1c(F)cccc1F` [CBK269643], the viability at 28.5 h, 10 µM was determined as 97.6%.

For the compound `CC(NC(=O)c1ccccc1)c1nnc(SCC(=O)c2ccccc2)n1C` (centres unmarked) [CBK269644], the viability at 28.5 h, 10 µM is 82.3%.

Consider `O=C(c1cccc(S(=O)(=O)Nc2ccccn2)c1)N1CCCc2ccccc21` [CBK269645], for which the viability at 28.5 h, 10 µM amounted to 84.9%.

Turning to `C=CCOc1ccc(OCCN2CC(C)OC(C)C2)cc1` (centres unmarked) [CBK269646C], the viability at 28.5 h, 10 µM is 112%.

In the case of `O=C(Nc1ccc2c(c1)OCO2)C1CCN(S(=O)(=O)c2ccc(Oc3ccccc3)cc2)CC1` [CBK269648], the viability at 28.5 h, 10 µM came to 85.1%.

As for `Cc1cccc(C(=O)Nc2cc(NC(=O)c3cccc(C)c3)cc(C(=O)O)c2)c1` [CBK269649], the viability at 28.5 h, 10 µM was 98%.

Take `Cc1ccc(OCCCN2CCN(C)CC2)c(Cc2ccccc2)c1` [CBK269650C]: the viability at 28.5 h, 10 µM came out at 104%.

Turning to `Cc1c(NCc2ccccn2)cccc1C(=O)O` [CBK269651], the viability at 28.5 h, 10 µM turned out to be 86.9%.

On to `Cc1cc(I)ccc1OCCCCN1CCN(C)CC1` [CBK269652C], for which the viability at 28.5 h, 10 µM came out at 91.3%.

In the case of `O=C(Nc1cccc(CCc2ccccn2)c1)c1ccc([N+](=O)[O-])cc1` [CBK269653], the viability at 28.5 h, 10 µM came to 86.9%.

Still in this data set, the particulars now being: human, hela cells, % viability, bulk resorufin, single well.
In the case of `CN1C(=O)N(C)C(=O)C(Cc2ccccn2)(Cc2ccccn2)C1=O` [CBK269577], the viability at 28.5 h, 10 µM is 97.5%.
